According to patent US4427698A, “Use of N,N-dimethyl-N'-p-tolyl-N'-dichlorofluoromethylthio-sulphamide for combating fungi which damage wood” (Bayer Aktiengesellschaft, priority 1978, dated 1984):
In brackets after ≈: the same amount, converted by molar mass.

Columns and labels:
[1] = Solubilities in % by weight; assay type: physicochemical
Description: Solubilities in % by weight of N,N-dimethyl-N'-p-tolyl-N'-dichlorofluoromethylthio-sulphamide (A) compared with N,N-dimethyl-N'-phenyl-N'-dichlorofluoromethylthio-sulphamide (B) and N-dichlorofluoromethylthio-phthalimide (C).

[2] = system: Ceratocystis coerulenceus; experiment: MIC determination in agar (beer wort and peptone); assay type: cell-based
Procedure: (§1) Determination of the minimum inhibitory concentration (MIC)
(§2) The active compound according to the invention is added, in concentrations of 2 mg/l to 5,000 mg/l, to an agar which is prepared from beer wort and peptone. After storing for 2 weeks at 28° C. and 60-70% relative atmospheric humidity the MIC is determined.

Ceratocystis pini = experiment: MIC determination in agar (beer wort and peptone); assay type: cell-based
Procedure: as §1, §2

Chaetomium globosum = experiment: MIC determination in agar (beer wort and peptone); assay type: cell-based
Procedure: as §1, §2

Coniophora cerebella = experiment: MIC determination in agar (beer wort and peptone); assay type: cell-based
Procedure: as §1, §2

Lentinus tigrinus = experiment: MIC determination in agar (beer wort and peptone); assay type: cell-based
Procedure: as §1, §2

Poria Vaporaria = experiment: MIC determination in agar (beer wort and peptone); assay type: cell-based
Procedure: as §1, §2

Ceratocystis piceae = experiment: activity against wood-damaging fungi; assay type: cell-based
Coriolus versicolor = experiment: activity against wood-damaging fungi; assay type: cell-based
[3] = Peroral toxicity, single administration by probang to male rats; details: rat, in vivo, po, dissolved in acetone, Probit analysis, read-out: LD50 perorally
Procedure: The LD50 was calculated by means of Probit analysis (Fink et al, Methods of information in medicin 5, 19, 1966).

[4] = Cutaneous treatment of male rats; assay type: in vivo, rat; details: rat, in vivo, topical or ocular, read-out: LD50 cutaneously
male rats [5] = experiment: Cutaneous treatment of male rats; assay type: in vivo, rat; details: cutaneous treatment
[6] = cumulative and percutaneous toxic action; assay type: in vivo; details: in contrast to known active compounds, for example pentachlorophenol
rats = details: Caines, Toxycology and Applied Pharmacology 14, 515 (1969); cited from earlier work
male rats [7] = details: comparison substance pentachlorophenol; cited from earlier work
[8] = Benzine fraction, boiling point 140-190° C.
[9] = Mixture of aromatic hydrocarbons, boiling point 159-175° C.
[10] = 336 h, 2 weeks at 28° C., 60-70% relative humidity

SMILES: CN(C)S(=O)(=O)N(SC(F)(Cl)Cl)c1ccccc1 [B, N,N-dimethyl-N'-phenyl-N'-dichlorofluoromethylthio-sulphamide]
- Solubility [1, 8]: 1.2 % by weight
- Solubility ([1]; Ethyl acetate): 11 % by weight
- Solubility ([1]; Methanol): 1.5 % by weight
- Solubility [1, 9]: 7.5 % by weight
- Solubility ([1]; Xylene): 6.5 % by weight
- solubility (in words) ([1]; formulating agents customary for wood protection agents): very poor solubility

SMILES: Cc1ccc(N(SC(F)(Cl)Cl)S(=O)(=O)N(C)C)cc1 [A, N,N-dimethyl-N'-p-tolyl-N'-dichlorofluoromethylthio-sulphamide]
- active against wood-damaging fungi [2]: active
- MIC [2, 10]: 20 µg/mL (≈ 57.6 µM)
- active against wood-damaging fungi (Ceratocystis pini): active
- MIC (Ceratocystis pini; [10]): 20 µg/mL (≈ 57.6 µM)
- active against wood-damaging fungi (Chaetomium globosum): active
- MIC (Chaetomium globosum; [10]): 10 µg/mL (≈ 28.8 µM)
- active against wood-damaging fungi (Coniophora cerebella): active
- MIC (Coniophora cerebella; [10]): 10 µg/mL (≈ 28.8 µM)
- active against wood-damaging fungi (Lentinus tigrinus): active
- MIC (Lentinus tigrinus; [10]): 5 µg/mL (≈ 14.4 µM)
- MIC (Poria Vaporaria; 336 h, Poria Vaporaria, 2 weeks at 28° C., 60-70% relative humidity): 2 µg/mL (≈ 5.76 µM)
- active against wood-damaging fungi (Poria Vaporaria; Poria vaporaria): active
- active against wood-damaging fungi (Ceratocystis piceae): active
- active against wood-damaging fungi (Coriolus versicolor): active
- Solubility [1, 8]: 2.5 % by weight
- Solubility ([1]; Ethyl acetate): 33 % by weight
- Solubility ([1]; Methanol): 5 % by weight
- Solubility [1, 9]: 20 % by weight
- Solubility ([1]; Xylene): 29 % by weight
- solubility (in words) ([1]; organic solvents): very readily soluble
- LD50 [3]: > 2500 mg/kg
- LD50 [4]: > 500 mg/kg
- percutaneous toxicity compared with the other sulphamide (in words) (male rats [5]): just as low a toxicity
- cumulative or percutaneous toxic action (in words) [6]: neither a cumulative nor a percutaneous toxic action

SMILES: Oc1c(Cl)c(Cl)c(Cl)c(Cl)c1Cl [Pentachlorophenol]
- LD50 perorally (rats): 160 mg/kg of body weight
- LD50 cutaneously (male rats [7]): 325 mg/kg
- percutaneous toxic action (in words) (male rats [7]): has a toxic action
